This is an account of results in US8465973B2, “Topical compositions containing phosphorylated polyphenols” (Estee Lauder Coordination Center N.V., priority 2004, dated 2013).

Values after ≈ are worked out from the molar mass of the structure shown.

The nature of data set [1]: Water solubility of resveratrol and resveratrol triphosphate. In kind it is physicochemical. As to the method: The water solubility of resveratrol is tested at pH 7 in 1 mM potassium phosphate buffer at room temperature. Ten mg of resveratrol (M.W. 228.24) are suspended in 10 ml of buffer. This suspension, corresponding to a concentration of 1 g/l or 4.38 mM, is agitated for 24 hours in a rotary shaker at 25° C. in the dark. The sample is centrifuged at 14,000 rpm for 5 minutes and an OD of 6.26 is determined at 305 nm wavelength at which the ε mM of resveratrol has a value of 28.1. Assuming complete solubility of resveratrol, the OD that should have been obtained is 123.1 (4.38×28.1). With an observed OD of 6.26, the percentage of dissolved resveratrol is 5.1% (6.26×100/123.1) or […].
(§1) In contrast, the solubility and stability of the resveratrol triphosphate tested under the same conditions, in water of different pH, in the range of 4 to 9, at room temperature.

The nature of data set [2]: Visual (color) stability of a cosmetic formulation. The data set is classed as physicochemical. Particulars: for color of formulation: 0.1% resveratrol or 0.2% resveratrol^Pi in base formula. On the procedure:
Three base formulas are prepared, the control containing no resveratrol, the other two formulas being identical to the control but for one containing 0.1% unmodified resveratrol, and the other containing 0.2% of phosphorylated resveratrol (Resveratrol^Pi).
The color of the control base is white, and with addition of the resveratrols, it takes on a light beige color. Each formulation is observed once a week for a period of four weeks to determine the presence of a color change (indicative of changing color stability), under three different environmental conditions: 50° C., 4° C., and room temperature (RT).

For data set [3], the system named is extractable fraction of human SC D-squame tape strippings (acid phosphatase present on the skin). As to the kind of experiment: Dephosphorylation of resveratrol^Pi by extractable fraction of stratum corneum D-squame tape strippings. To be noted: resveratrol^Pi 0.22 mg/ml or 0.47 mM, FIG. 3; for correlation (r) of amount with incubation time: N=15. As to the method:
D-squame tape strippings were collected on the inner lower arm of one panelist. […] The extractable fraction was transferred to another vial and mixed with resveratrol^Pi stock-solution. The concentration of resveratrol^Pi during the incubation was 0.22 mg/ml or 0.47 mM. At various incubation time points a 25 μl aliquot of the incubation mixture was diluted in 25 μl 10 mM o-phosphoric acid and 50 μl of MeOH and injected onto the HPLC system.

For data set [4], the system named is acid phosphatase from wheat germ. As to the kind of experiment: Enzymatic dephosphorylation of resveratrol^Pi by acid phosphatase, HPLC analysis. Particulars: resveratrol^Pi 1.6 mg/ml, acid phosphatase 0.056 U/ml, pH 5.5; FIG. 2. As to the method:
The experimental conditions for the HPLC analysis of resveratrol are shown below.
Phosphorylated resveratrol was incubated in the presence of acid phosphatase from wheat germ (Sigma, P3627 lot 081K7071) in 0.147M (NH4)2SO4/0.81 mM MgCl2 pH 5.5. The concentration of resveratrol^Pi and acid phosphatase was 1.6 mg/ml and 0.056 U/ml respectively. Aliquots were taken at different time intervals and analysed by HPLC (conditions see above).

A short description of data set [5]: Stability of resveratrol triphosphate in solid and water solution form. In kind it is physicochemical.
From the text: as §1

In data set [1] (25 °C, pH 7, aqueous buffer, thermodynamic from solid), `Oc1ccc(/C=C/c2cc(O)cc(O)c2)cc1` [resveratrol] registered a solubility at 24 h of 5.1 µg/mL (≈ 22.3 µM). Moreover, the “percentage of dissolved resveratrol” value in data set [1] (pH 7, 1 mM potassium phosphate buffer, 1 g/l suspension, 24 hours, 25° C., OD at 305 nm) is given as 5.1%. For the same molecule, the color of formulation result was “lt beige” in data set [2] (1 week, 4° C.); “lt beige” in data set [2] (1 week, 50° C.); “lt beige” in data set [2] (1 week, room temperature); “lt beige” in data set [2] (2 weeks, 4° C.); “lt beige” in data set [2] (2 weeks, 50° C.); “lt beige” in data set [2] (2 weeks, room temperature). The color of formulation entry in data set [2] (3 weeks, 4° C.) is recorded as “lt beige”; in data set [2] (3 weeks, 50° C.), “lt beige (vsl darker with sl top oxidation)”; in data set [2] (3 weeks, room temperature), “lt beige”; in data set [2] (4 weeks, 4° C.), “lt beige (sl lighter beige than RT)”; in data set [2] (4 weeks, 50° C.), “beige (sl darker than RT with top oxidation)”; in data set [2] (4 weeks, room temperature), “lt beige/beige”. Moreover, the “correlation (r) of amount with incubation time” value in data set [3] came to 0.99.

Take resveratrol diphosphate: in data set [4], the “incubation time at which the maximum amount is reached” value is on record as “around 85 minutes”.

Regarding resveratrol triphosphate, the stability entry in data set [5] was “stable in both solid and water solution form for periods in excess of one year”. The same molecule registered a solubility in data set [1] (water of different pH, range 4 to 9, room temperature) greater than 30 % w/v. The “color development versus unmodified resveratrol” value in data set [2] (at the end of four weeks) is reported as “less color development than the unmodified resveratrol”. Also, the “correlation (r) of amount with incubation time” value in data set [3] is −0.69. Also, the “conversion on incubation with extractable fraction of SC D-squame tape strippings (HPLC)” value in data set [3] (pH 5.6) is given as “decreased gradually”. Also, the “conversion on treatment with acid phosphatase (HPLC)” value in data set [4] is given as “decreased gradually”.
